Assay: Vapour pressure of the pure substance
Type: physicochemical
Details: about 20° C.
Procedure: “Volatility” according to the present invention is considered to be present for substances having a liquid or sublimation vapour pressure of the pure substance at 20° C. of at least about 0.013 Pascal (0.0001 mmHg), or at least about 0.1 Pascal. Vapour pressure can be measured according to ASTM Standard E1194-01 of November 2001. In certain embodiments according to the present invention, an upper limit for the vapour pressure of pure material should be less than about 67 Pascal (0.5 mmHg), or less than about 13 Pascal (0.1 mmHg) each at 20° C. Evaluation of whether a composition does vaporize sufficiently can be made by a panel of at least five people or by vapour head evaluation, e.g. with gas chromatography.

vapour pressure: about 0.53 Pascal | vapour pressure (equivalent of the Pascal value): 0.004 mmHg
SMILES: CNC(=O)C(C)(C(C)C)C(C)C [WS-23, 2-Isopropyl-N,2,3-trimethylbutyramide]
